Data set [1] relates to Human gammaherpesvirus 4. Put plainly: Reactivation of latent EBV infected in human MUTU-I cells incubated for 48 hrs by steady-glo luciferase reporter assay relative to C60. It is filed as functional. On the set-up: concentration or dose not given beside the values. (In general: A reporter such as luciferase makes a cellular process visible.)
The subject of data set [2] is Human gammaherpesvirus 4. Briefly: Reactivation of latent EBV in human SNU-719 cells xenografted NSG mouse assessed as increase in BZLF1 protein level in tumor mass at 30 mg/kg, ip qd for 4 days starting from 28 days post infection by immunoblot analysis. It is filed as functional, organism-based. (In xenograft studies the graft and the host belong to different species.)

The test system of data set [3] is Human gammaherpesvirus 4. Put plainly: Reactivation of latent EBV in human AGS cells xenografted NSG mouse assessed as increase in BZLF1 protein level in tumor mass at 25 mg/kg, ip qd for 3 days starting from 35 days post infection by immunoblot analysis.
Data set [4] has as its system Human gammaherpesvirus 4. Briefly: Reactivation of latent EBV infected in human MUTU-I cells incubated for 48 hrs by steady-glo luciferase reporter assay. The class given is functional, organism-based. Particulars: human gammaherpesvirus 4, MUTU-I.
A short description of data set [5]: Stability in mouse plasma. The class given is ADME, cell-free. Particulars: read-out: Stability.
Data set [6] can be described thus: Stability in human plasma. It is filed as ADME, cell-free. Particulars: read-out: Stability.
Data set [7] can be described thus: Half life in mouse liver microsomes. The class given is ADME, Microsome. (In general: Microsomes from liver hold many membrane-bound enzymes, among them those of drug oxidation.)
Data set [8] in a line: Half life in human liver microsomes. The class given is ADME, Microsome.
The nature of data set [9]: Aqueous solubility of compound in pH 7.4 PBS buffer. It is filed as physicochemical.

Each structure is given as a SMILES string. Converted amounts (≈) assume the structure as drawn. The source made the active and inactive calls. The rule behind the calls is not given here.

Turning to `COc1ccc(NC(=O)N2CCc3c([nH]c4ccc(Cl)cc34)C2c2ccc(OC)cc2)cc1` (centres undefined), the Activity in the data set on Human gammaherpesvirus 4 [1] was 31%.

As to `COCCOCCOCCOc1ccc(C2c3[nH]c4ccc(Cl)cc4c3CCN2C(=O)Nc2ccccc2Cl)cc1` (centres undefined), the result in the data set on Human gammaherpesvirus 4 [2] and in the data set on Human gammaherpesvirus 4 [3] was Active.

Usually EC50 stands for the concentration giving half of the maximal effect. As usually defined, the solubility is the concentration that dissolves in the medium under given conditions. Take `COC(=O)c1ccccc1NC(=O)N1CCc2c([nH]c3ccc(Cl)cc23)C1c1ccc(OC)cc1` (centres undefined): the EC50 in the data set with Human gammaherpesvirus 4 [4] was determined as 157 nM. The half-life in data set [5] and in [6] was greater than 6 h in each case. Besides, the t1/2 in [7] was greater than 1.5 h; in data set [8] it was 1.3 h. This molecule also displayed a solubility in [9] of less than 10 µg/mL.

For the molecule `COC(=O)c1ccccc1NC(=O)N1CCc2c([nH]c3ccccc23)C1c1ccc(OC)cc1` (centres undefined), in the data set on Human gammaherpesvirus 4 [1], the Activity turned out to be 14%.

As for `COc1ccc(C2c3[nH]c4ccc(Cl)cc4c3CCN2C(=O)Nc2ccc(OC)cc2OC)cc1` (centres undefined), the EC50 with Human gammaherpesvirus 4 [4] amounted to 1130 nM.

Consider `COc1ccc(C2NCCc3c2[nH]c2ccc(Cl)cc32)cc1` (centres undefined), for which the response in the data set on Human gammaherpesvirus 4 [4] was half-maximal at 215 nM (EC50).

`COc1ccc(C2c3[nH]c4ccc(Cl)cc4c3CCN2C(=O)c2ccc(Cl)cc2)cc1` (centres undefined) displayed a half-maximal effective concentration (EC50) in the data set on Human gammaherpesvirus 4 [4] of 228 nM.

Consider `COCCOCCOCCOc1ccc(C2c3[nH]c4ccc(Cl)cc4c3CCN2C(=O)Nc2ccccc2C(=O)OC)cc1` (centres undefined), for which the result with Human gammaherpesvirus 4 [2] and in the data set with Human gammaherpesvirus 4 [3] was Active.

In the data set on Human gammaherpesvirus 4 [4], `COc1ccc(C2c3[nH]c4ccc(Cl)cc4c3CCN2C(=O)c2cccc(CN3CCOCC3)c2)cc1` (centres undefined) returned an EC50 of 277 nM.

With `COc1ccc(C2c3[nH]c4ccc(Cl)cc4c3CCN2C(=O)c2ccccc2Cl)cc1` (centres undefined), in the data set with Human gammaherpesvirus 4 [4], the EC50 amounted to 2430 nM.

Molecule `O=C(c1cccc(CN2CCOCC2)c1)N1CCc2c([nH]c3ccc(Cl)cc23)C1c1ccc(Cl)cc1` (centres undefined) had an EC50 in the data set with Human gammaherpesvirus 4 [4] of 277 nM.

For `COc1ccc(C2c3[nH]c4ccc(Cl)cc4c3CCN2S(=O)(=O)c2ccccc2OC)cc1` (centres undefined), in the data set on Human gammaherpesvirus 4 [4], the EC50 came out at 4010 nM.

In the data set with Human gammaherpesvirus 4 [4], `COc1ccc(C2c3[nH]c4ccc(Cl)cc4c3CCN2C(=O)c2cccc(OC)c2)cc1` (centres undefined) registered an EC50 of 168 nM. Moreover, the half-life in data set [5] and in data set [6] was greater than 6 h in each case. Moreover, the t1/2 in data set [7] is 0.517 h; in data set [8], greater than 1.5 h. Further, the solubility in data set [9] worked out at 166 µg/mL (≈ 371 µM).

For `COc1ccc(C2c3[nH]c4ccc(Cl)cc4c3CCN2C(=O)Nc2ccccc2OC)cc1` (centres undefined), in the data set on Human gammaherpesvirus 4 [4], the EC50 was 169 nM. Further, in the data set with Human gammaherpesvirus 4 [1], the Activity is 79%.

In the case of `COc1ccc(C2c3[nH]c4ccc(Cl)cc4c3CCN2C(=O)c2ccccc2C(F)(F)F)cc1` (centres undefined), the response in the data set on Human gammaherpesvirus 4 [4] was half-maximal at 1580 nM (EC50).

For the molecule `COc1ccc(C(=O)N2CCc3c([nH]c4ccc(Cl)cc34)C2c2ccc(OC)cc2)cc1` (centres undefined), the half-maximal effective concentration (EC50) with Human gammaherpesvirus 4 [4] is 154 nM.

Turning to `COc1ccc(C2c3[nH]c4ccc(Cl)cc4c3CCN2C(=O)c2ccc(C(F)(F)F)cc2)cc1` (centres undefined), in the data set with Human gammaherpesvirus 4 [4], a half-maximal effect (EC50) was put at 434 nM.

For `COc1ccc(C2c3[nH]c4ccc(Cl)cc4c3CCN2C(=O)c2ccccc2OC)cc1` (centres undefined), the response in the data set on Human gammaherpesvirus 4 [4] was half-maximal at 4270 nM (EC50).

The molecule `COc1cccc(C(=O)N2CCc3c([nH]c4ccc(Cl)cc34)C2c2ccc(O)cc2)c1` (centres undefined) displayed an EC50 in the data set with Human gammaherpesvirus 4 [4] of 310 nM. Moreover, the result in the data set on Human gammaherpesvirus 4 [2] was Active.

In the data set with Human gammaherpesvirus 4 [4], `CCOC(=O)c1ccccc1NC(=O)N1CCc2c([nH]c3ccc(OC)cc23)C1c1ccc(C)cc1` (centres undefined) yielded a concentration giving a half-maximal response (EC50) of 1080 nM.

`COC(=O)c1sccc1NC(=O)N1CCc2c([nH]c3ccc(OC)cc23)C1c1ccc(C)cc1` (centres undefined): it took 576 nM to reach a half-maximal effect in the data set on Human gammaherpesvirus 4 [4] (EC50).

In the data set on Human gammaherpesvirus 4 [1], `COc1ccc(C2c3[nH]c4ccc(Cl)cc4c3CCN2C(=O)Nc2cccc(OC)c2)cc1` (centres undefined) had an Activity of 43%.

Take `COc1ccc(C2c3[nH]c4ccccc4c3CCN2C(=O)Nc2ccccc2OC)cc1` (centres undefined): in the data set with Human gammaherpesvirus 4 [1], the Activity is 15%.

`COC(=O)c1cccc(NC(=O)N2CCc3c([nH]c4ccc(Cl)cc34)C2c2ccc(OC)cc2)c1` (centres undefined) registered an Activity in the data set on Human gammaherpesvirus 4 [1] of 17%.

Regarding `COc1ccc(C2c3[nH]c4ccc(Cl)cc4c3CCN2S(=O)(=O)c2ccc(OC)cc2)cc1` (centres undefined), the concentration giving a half-maximal response (EC50) in the data set with Human gammaherpesvirus 4 [4] amounted to 8030 nM.

For the origin of these results see ChEMBL document CHEMBL4433253, “Development of a novel inducer for EBV lytic therapy” (Bioorg Med Chem Lett, 2019).
